Laboratory results: article PMC4800460 (Journal of Biomolecular Screening, 2015)

Target: NT647-MEK1 (MEK1 residues 37–383) (Homo sapiens, UniProt Q02750)
Assay: Automated microscale thermophoresis
Format: binding

Chain of NT647-MEK1 (MEK1 residues 37–383) (Q02750 37-383): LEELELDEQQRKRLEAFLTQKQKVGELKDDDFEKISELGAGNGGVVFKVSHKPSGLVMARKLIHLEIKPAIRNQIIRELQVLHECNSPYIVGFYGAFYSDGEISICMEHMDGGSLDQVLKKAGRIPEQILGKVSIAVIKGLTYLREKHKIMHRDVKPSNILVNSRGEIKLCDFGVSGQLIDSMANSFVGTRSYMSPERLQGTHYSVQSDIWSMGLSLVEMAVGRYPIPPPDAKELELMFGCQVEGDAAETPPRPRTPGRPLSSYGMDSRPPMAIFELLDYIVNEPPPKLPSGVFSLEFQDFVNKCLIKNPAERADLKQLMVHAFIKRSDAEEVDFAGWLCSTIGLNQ

With Nc1ncnc2c1ncn2[C@@H]1O[C@H](COP(=O)(O)OP(=O)(O)OP(=O)(O)O)[C@@H](O)[C@H]1O [ATP, adenosine triphosphate] the Kd (Kd of ATP in the absence of MgCl2, without MgCl2) was 140 µM and the Kd (Kd of ATP in the presence of MgCl2, MST buffer with 10 mM MgCl2) was 4.5 µM.
